The subject of assay [1] is human PC3 xenograft tumors. The assay can be described thus: Prostate cancer xenograft model (tumor growth inhibition in vivo). The conditions noted are these: SCID mice, 3 mpk p.o. (Example 3a once daily and BID; Example 19 once daily), 15 days; FIG. 3A. Set-up: species or system mouse. The method, then:
Animals: Severe combined immunodeficient (SCID) mice (Male and Female) 6 to 8 weeks old, were used. Animals were housed in suitable cages under specified pathogen-free conditions in rooms maintained at 23° C. and 50% humidity, with a 12-hour light/12-hour dark cycle. The mice were quarantined during the acclimatization period of at least a week.
Prostate cancer xenograft model: PC3 (human prostate cancer) cell line (ATCC) was maintained in RPMI 1640 (Gibco BRL, Pasley, UK) supplemented with 10% (v/v) FBS. The cells were incubated at 37° C. in a humidified atmosphere containing 5% CO2. Cells were passaged using trypsin/EDTA for cell detachment once every 3 days. On the day of tumor cell injection, cells were detached from the flasks with trypsin/EDTA, washed once in medium and re-suspended in serum free RPMI 1640 at 5 million cells/0.2 mL volume, and placed on ice. […]
Procedure: Tumor-bearing mice were randomized (n=7 per group) in four groups when the mean tumor volume was ˜100 mm^3. […] Twice a week, each xenograft was measured in two dimensions (a=length; b=width) with a caliper. Tumor volume (V) was determined by the following equation: V=ab^2/2
Tumor volumes were converted into tumor weights assuming a tumor density of 1 mm^3=1 mg. Tumor growth inhibition (TGI) for each group was calculated according to the following formula: […]

Assay [2] relates to PI3K/mTOR pathway. Nature of the assay: Western blot analysis in A2780 ovarian cancer cell line. Type of assay: cell-based. The conditions noted are these: A2780 cells treated for 1 hour; FIG. 1A-1E. The method, then:
Protocol for Western Blot Analysis
A2780 ovarian cancer cell line (ATCC) were grown to approximately 70% confluence in 100-mm tissue culture dishes and then treated for 1 hour with […] compounds of Example 2, 3, 5, 16, 19, 55 and 59. Total protein was extracted using cell lysis buffer (NaCl […], NP40 0.67%, Tris-Cl, pH 7.5, 67 mM) containing protease inhibitors and phosphatase inhibitors (Beta-glycerol phosphate 40 mM, DTT 1 mM, NaF 0.4 mM, Sodium-Orthovanadate 0.4 mM) at 4° C. for 1 hour. Cell lysates were then centrifuged at 2×10^4 g for 10 minutes at 4° C., and the protein concentration of the supernatant was quantified using the Bradford's method (BioRad, USA). For SDS-PAGE, 50 μg protein was loaded in SDS-PAGE, transferred to a polyvinylidene difluoride membrane (Bio-Rad, USA) and blocked with 5 mL buffer [5% skim milk and 0.1% Tween] for 1 hour 30 minutes. Membrane were probed with primary antibody (all primary antibodies were from cell signaling with 1:1000 in TBST solution) of respective protein at 4° C. overnight. Peroxidase-labeled anti-rabbit or anti-mouse antibodies (Santacruze, USA) were used as the secondary antibody. Actin and respective whole protein levels were used as the control for protein loading. Protein antigens were detected using Chemiluminescent Substrate (Thermo scientific, USA) and exposed on Kodak station.

Assay [3] concerns BT 549. The assay can be described thus: Cytotoxicity propidium iodide assay, BT 549. In kind it is cell-based. The conditions noted are these: Homo sapiens; BT 549 (breast), 48 hours treatment; read-out: IC50 Values in μM, C3c. In short, it runs like this: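 Read-out: propidium iodide fluorescence after freeze-thaw, with untreated wells set to 100% viability and IC50 taken from the plotted percentages. Cells (3000/well) were pre-incubated 18-24 h, then treated 48 h with a range of compound concentrations.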

Assay [4] concerns KU812/SR. The assay can be described thus: Cytotoxicity propidium iodide assay, KU812/SR. Type of assay: cell-based. The conditions noted are these: Homo sapiens; KU812/SR (CML), 48 hours treatment; read-out: IC50 Values in μM, C6c. The procedure:
The assay was designed as in the reference, Anticancer Drugs, 2002, 13, 1-8, the disclosure of which is incorporated herein by reference for the teaching of the assay.
Cells from cell lines (ATCC) as mentioned in the table given below were seeded at a density of 3000 cells/well in a white opaque 96-well plate. Following incubation at 37° C./5% CO2 for a period of 18-24 hours, the cells were treated with various concentrations (stock solution was prepared in DMSO and subsequent dilutions were made in media as per ATCC guidelines) of the compounds of the present invention for a period of 48 hours. At the end of treatment, the culture medium was discarded, the cells were washed with 1×PBS and 200 μL of […] propidium iodide was added to each well. The plates were frozen at […] overnight. For analysis, the plates were warmed to RT, allowed to thaw and were read in PoleStar fluorimeter with the fluorescence setting. The percentage of viable cells in the non-treated set of wells was considered to be 100 and the percentage viability following treatment was calculated accordingly. IC50 values were calculated from graphs plotted using these percentages. IC50 values for certain compounds of present invention are depicted in Table 1 and % Inhibition of certain compounds of present invention are depicted in Table 2.

Molecules are shown by their SMILES.

With `CS(=O)(=O)O.Cn1c(=O)n(-c2ccc(C(C)(C)C#N)nc2)c2c3cc(-c4cnc(N)c(C(F)(F)F)c4)ccc3ncc21` [Example 3a, 8-(6-Amino-5-(trifluoromethyl)pyridin-3-yl)-1-(6-(2-cyanopropan-2-yl)pyridin-3-yl)-3-methyl-2-oxo-2,3-dihydro-1H-imidazo[4,5-c]quinolin-5-ium methanesulfonate], the “Tumor growth in-vivo, PC3 xenograft” value in assay [1] is reported as “effectively inhibit tumor growth in-vivo”. The “Akt, S6 and 4EBP1 phosphorylation (Western blot)” value (shortened to “Akt, S6 and 4EBP1 phosphorylation”) in assay [2] was “inhibit Akt, S6 and 4EBP1 phosphorylation”.
In the case of `CC(C)(C#N)c1ccc(-n2c(=O)n(CC#N)c3cnc4ccc(-c5cnc(N)c(C(F)(F)F)c5)cc4c32)cn1` [Example 16, 2-(5-(8-(6-Amino-5-(trifluoromethyl)pyridin-3-yl)-3-(cyanomethyl)-2-oxo-2,3-dihydro-1H-imidazo[4,5-c]quinolin-1-yl)pyridin-2-yl)-2-methylpropanenitrile], the IC50 amounted to 0.015 µM in assay [3] and 0.19 µM in assay [4]. Moreover, the “Akt, S6 and 4EBP1 phosphorylation” value in assay [2] is “inhibit Akt, S6 and 4EBP1 phosphorylation”.
Take `COc1ccc(-n2c(=O)n(C)c3cnc4ccc(-c5cnc(N)c(C(F)(F)F)c5)cc4c32)cn1` [Example 19, 8-(6-Amino-5-(trifluoromethyl)pyridin-3-yl)-1-(6-methoxypyridin-3-yl)-3-methyl-1H-imidazo[4,5-c]quinolin-2(3H)-one]: in assay [1], the “Tumor growth in-vivo, PC3 xenograft” value is “effectively inhibit tumor growth in-vivo”. Also, the results for the half-maximal inhibitory concentration (IC50) in assay [3] and in assay [4] were 0.23 µM and 0.06 µM, respectively. Also, in assay [2], the “Akt, S6 and 4EBP1 phosphorylation” value is “inhibit Akt, S6 and 4EBP1 phosphorylation”.
For `Cn1c(=O)n(-c2ccc(C(C)(C)C#N)nc2)c2c3cc(-c4cnc(N)c(C(F)(F)F)c4)ccc3ncc21` [Example 3, 2-(5-(8-(6-Amino-5-(trifluoromethyl)pyridin-3-yl)-3-methyl-2-oxo-2,3-dihydro-1H-imidazo[4,5-c]quinolin-1-yl)pyridin-2-yl)-2-methylpropanenitrile], the values for the IC50 in assay [3] and in assay [4] were 0.03 µM and 0.19 µM, respectively. The “Akt, S6 and 4EBP1 phosphorylation” value in assay [2] is “inhibit Akt, S6 and 4EBP1 phosphorylation”.
Regarding `Cn1c(=O)n(-c2ccc(C(C)(C)C#N)nc2)c2c3cc(-c4cnc5ccccc5c4)ccc3ncc21` [Example 2, 2-Methyl-2-(5-(3-methyl-2-oxo-8-(quinolin-3-yl)-2,3-dihydro-1H-imidazo[4,5-c]quinolin-1-yl)pyridin-2-yl)propanenitrile], in assay [3], the IC50 amounted to 0.9 µM. In assay [2], the “Akt, S6 and 4EBP1 phosphorylation” value was “inhibit Akt, S6 and 4EBP1 phosphorylation”.

For the origin of these results see patent publication US20130310374A1, “Substituted Imidazoquinoline Derivatives” (PIRAMAL ENTERPRISES LIMITED`, priority 2010, published 2013).
